# Assay results as given in US7754694B2, “Pyrrolo[2, 1-C][1, 4]benzodiazepine-glycoside prodrug useful as a selective anti tumor agent” (priority 2007, dated 2010).
# Experiments:
# E. coli β-galactosidase = E. coli β-galactosidase (Escherichia coli, UniProt P00722); assay type: biochemical; settings: in the presence of β-galactosidase, 60-90 minutes, 37° C., pH 7.2 (phosphate buffer)
# Method: FIG. 1. A drawing illustrating the effect of the prodrug 1a 1 μmole was treated with 2 units of E. coli β galactosidase enzyme and the progress of the hydrolysis was monitored by reverse phase HPLC. HPLC conditions: C18 Reverse phase column. Mobile phase 40:60 CH3CN/ H2O, flow rate of 1 ml/ min. UV detection: wave length 254 nm.
# The prodrug 1a 1 μmole was treated with 2 units of E. coli β galactosidase enzyme and the progress of the hydrolysis was monitored by reverse phase HPLC. The results are presented in the form of a graph as illustrated in FIG. 1. Biological Studies Of The Prodrugs
# A375 cells = assay: Cell cycle progression by FACS (subG1 and G2/M population) in A375 cells; assay type: cell-based, human; settings: 1a 42 μM, 1b 23.4 μM
# Description: (§1) The cytotoxic effects of the newly synthesized compounds 1a and 1b and their respective PBD imines were examined by cell cycle progression experiments on human tumor cells, by using fluorescence-activated cell sorting (FACS) analysis, in the absence and in the presence of β-galactosidase enzyme. In the primary flow cytometric study, the DNA content of the cells was used as a major determinant for cell count. The subG1 population, a conspicuous indicator for cell death, presumably apoptosis, and G2/M population was also determined in HepG2 and A375 cell lines.
# HepG2 cells = assay: Cell cycle progression by FACS (subG1 and G2/M population) in HepG2 cells; assay type: cell-based, human
# Description: as §1
# Next we evaluated the prodrugs for their activation efficiency by intracellular β-galactosidase, in human liver cancer, HepG2 cells.
# Sequence of E. coli β-galactosidase (P00722 2-1024): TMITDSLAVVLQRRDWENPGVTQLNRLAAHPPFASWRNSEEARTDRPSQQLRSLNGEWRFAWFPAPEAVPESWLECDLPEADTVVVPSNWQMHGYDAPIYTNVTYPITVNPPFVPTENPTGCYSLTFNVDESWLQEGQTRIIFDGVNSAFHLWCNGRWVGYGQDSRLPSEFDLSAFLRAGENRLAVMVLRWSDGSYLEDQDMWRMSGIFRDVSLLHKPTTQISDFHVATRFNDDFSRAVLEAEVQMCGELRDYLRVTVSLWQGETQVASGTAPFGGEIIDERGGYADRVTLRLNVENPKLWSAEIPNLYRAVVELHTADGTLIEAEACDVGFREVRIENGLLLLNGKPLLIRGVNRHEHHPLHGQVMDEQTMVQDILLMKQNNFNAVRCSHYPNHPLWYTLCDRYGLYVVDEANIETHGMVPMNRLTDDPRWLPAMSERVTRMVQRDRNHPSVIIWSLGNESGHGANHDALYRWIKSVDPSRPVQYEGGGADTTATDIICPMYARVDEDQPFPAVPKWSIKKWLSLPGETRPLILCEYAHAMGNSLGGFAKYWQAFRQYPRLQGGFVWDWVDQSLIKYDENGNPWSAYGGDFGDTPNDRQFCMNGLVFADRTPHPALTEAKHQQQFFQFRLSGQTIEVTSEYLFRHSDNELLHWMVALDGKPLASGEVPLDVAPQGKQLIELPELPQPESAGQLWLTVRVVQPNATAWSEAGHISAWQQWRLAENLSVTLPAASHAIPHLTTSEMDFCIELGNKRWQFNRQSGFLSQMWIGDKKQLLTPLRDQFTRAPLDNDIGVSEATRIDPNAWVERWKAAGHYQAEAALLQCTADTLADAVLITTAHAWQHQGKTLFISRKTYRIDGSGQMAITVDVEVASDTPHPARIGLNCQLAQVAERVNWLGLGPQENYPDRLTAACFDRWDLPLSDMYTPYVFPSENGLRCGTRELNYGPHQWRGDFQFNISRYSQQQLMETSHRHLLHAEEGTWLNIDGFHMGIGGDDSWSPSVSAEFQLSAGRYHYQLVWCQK
smiles,measurement,setting,value
"COc1cc2c(cc1OCCCOc1cc3c(cc1OC)C(=O)N1CCC[C@H]1[C@H](O)N3C(=O)OCc1ccc(O[C@@H]3O[C@H](CO)[C@H](O)[C@H](O)[C@H]3O)c([N+](=O)[O-])c1)N(C(=O)OCc1ccc(O[C@@H]3O[C@H](CO)[C@H](O)[C@H](O)[C@H]3O)c([N+](=O)[O-])c1)[C@@H](O)[C@@H]1CCCN1C2=O [Compound 1b, 1,1′-[[(propane-1,3-diyl)dioxy]-bis(11S,11aS)-10-(4-β-D -galactopyranosyloxy-3-nitrophenyl)methoxycarbonyl-11-hydroxy-7-methoxy-1,2,3,-10,11,11a-hexahydro-5H-pyrrolo[2,1-c][1,4]-benzodiazepin-5-one]]",activation of the prodrug by β-galactosidase,E. coli β-galactosidase,activated to their corresponding carbinolamines
same,apoptosis / cell death in A375 cells with E. coli β-galactosidase,"A375 cells; A375, with E. coli β-galactosidase",apoptosis identical to that of the parent drugs 6a and 6b respectively
same,amount of cell death in A375 cells in the absence of the enzyme,"A375 cells; A375, without β-galactosidase",insignificant
same,cytometric profile / apoptotic response in HepG2 cells in the presence of E. coli β-galactosidase,"HepG2 cells; HepG2, with added E. coli β-galactosidase",profile comparable to that of the parent drug 6b
same,cytometric profile / apoptotic response in HepG2 cells in the absence of E. coli β-galactosidase,"HepG2 cells; HepG2, without added enzyme (intracellular β-galactosidase)",block in the G2/M phase of the cell cycle
